Data as given in patent US12167995B2, “[((1R,2S,5R)-2-isopropyl-5-methyl-cyclohexanecarbonyl)-amino]-acetic acid isopropyl ester for treatment of chronic cough” (AXALBION SA, priority 2019, dated 2024).
“Also recorded” adds a separate entry of the source.

Experiments:
[1] = test system: isolated guinea pig vagal nerves; assay: Capsaicin-induced depolarization on isolated guinea pig vagal nerves (grease-gap recording)
Method: The vagal nerve is the main afferent pathway of the cough reflex loop. Therefore, the ability—and dependence on TRPM8—of AX-8 to inhibit the capsaicin-induced depolarization on isolated guinea pig vagal nerves was assessed. The tissue was assayed using an O2/CO2 gassed, grease-gap recording system as previously described (see, e.g., Birrell et al., 2009). Briefly, after the tissue has stabilised, it was exposed to a challenge (capsaicin, 1 μM, TRPV1 agonist for 2 minutes), then washed. This was then repeated to confirm the basal response. After washing, the tissue was incubated with vehicle or AX-8 (10 nM-1 mM) for 10 minutes. Following this, the tissue was re-challenged with capsaicin (in the presence of vehicle or AX-8).
Where the TRPM8 antagonist PF-05105679 (PF, 10 μM) was used, following the two reproducible responses to capsaicin, the nerve was incubated with the TRPM8 antagonist or vehicle (0.1% DMSO) for 10 minutes, prior to incubation with AX-8 or vehicle for 10 minutes. The nerve was then restimulated with capsaicin in the presence of PF/Vehicle and AX-8/Vehicle and the percentage of inhibition of the original response calculated. Following a wash period, the nerve was then restimulated with capsaicin to determine viability. The level of depolarization was recorded at each phase. The data were recorded as actual depolarisation levels and as a percentage inhibition (caused by the vehicle or test compound) of the mean of the initial, control recordings.

[2] = test system: capsaicin-induced cough; assay: Capsaicin-induced cough in awake guinea pig; type: in vivo
Method: AX-8's antitussive effect was evaluated in a standardized guinea pig model of cough (see, e.g., Brozmanova et al., 2012; Dong et al., 2016). Guinea pigs were placed in a plethysmography chamber and exposed for 10 minutes to nebulized capsaicin solution (0.1 mM) to induce cough. The cough frequency was detected as a transient change in airflow in the chamber and the signal recorded via a pressure transducer and computer. Additionally, the audio-amplified count was also recorded electronically. Coughs were counted for the 10-minute exposure period. The experiment was visually monitored by the investigator. A 5 mg/mL AX-8 solution was prepared by dissolving AX-8 in absolute ethanol at 200 mg/mL and then diluting in a solution of 4 mg/mL of sweet potato powder in saline (i.e., vehicle). The baseline frequency of coughing in response to exposure to capsaicin mist was recorded for the control (vehicle only) and treated (AX-8) group of animals (n=10 animals per group). Seven days later, animals were anesthetized with diethyl ether and a small animal laryngoscope was used to place the tip of a micro sprayer syringe in the oral cavity. Vehicle or AX-8 was administered into the oropharyngeal region at 75 μL per animal (n=10 animals per group). […] Ten minutes after administration, the guinea pigs were exposed to the capsaicin mist and the number of coughs recorded.

[3] = test system: refractory chronic cough (RCC); assay: Clinical Trial 2: cough severity and associated sensations, 100 mm VAS; type: in vivo, human
Method: Cough Severity was scored on a 100 mm Visual Analog Scale (VAS) at the specified time points. The patient was asked to indicate their assessment by marking (e.g., with a pen) a position along a 100 mm line between two extremes, e.g., “no cough” and “worst cough”. Urge-to-cough was scored on a 100 mm VAS at the specified time points. Throat irritation was scored on a 100 mm VAS at the specified time points. Throat cooling was scored on a 100 mm VAS at the specified time points. At least 24 hours after the Baseline Visit cough monitor has been attached on Day 0, and preferably before 10 am, the following activities were performed by clinic staff (not specified by the order below): • Remove the Baseline Visit cough monitor. • Update medical history. • Record all concomitant medication use. • Inclusion/exclusion criteria review. • If all inclusion and exclusion criteria were met, enroll patient into study. • Vital signs: before dose and 4 hours after dose. • 12-lead ECG (before dose). • Laboratory tests: • Urine drugs-of-abuse testing. • Pharmacokinetic (PK) sample taken. • Provide subject with VAS diary and instruct them to complete VAS assessments at +5 and +6 hours at home (see below). • Before dosing, attach and activate Treatment Visit cough monitor. • Administer the dose of the study drug (preferably before 10 am). • Cough severity VAS assessment: • Prior to dose: • −30 minutes. • After dose: • +1, +2, +3, +4, +5, +6 hours. • Urge-to-cough VAS assessment: • Prior to dose: • −30 minutes. • After dose: • +1, +2, +3, +4, +5, +6 hours. • Throat irritancy VAS assessment: • Prior to dose: • −30 minutes. • After dose: • +1, +2, +3, +4, +5, +6 hours. • Throat cooling VAS assessment: • Prior to dose: • −30 minutes. • After dose: • +1, +2, +3, +4, +5, +6 hours. • GRCS assessment at 4 hours after dose. • Schedule Follow-Up Visit. • Once the Investigator confirmed it was safe to do so, the subject could leave the unit after the assessments 4 hours after dose were complete. At least 24 hours after the Treatment Visit cough monitor has been attached (on Day 1), the following activities were performed by clinic staff (not specified by the order below): • Remove the Treatment Visit cough monitor. • Collect and review the VAS diary for completeness. • Overall impression of the treatment day (24 hours) with: • Cough severity VAS assessment. • Urge-to-cough VAS assessment. • Throat irritancy VAS assessment. • Throat cooling VAS assessment. • GRCS assessment. • Record all adverse events. • Record all concomitant medication use. • Schedule End of Study visit. End of Study Visit (Visit 5): The following procedures and evaluations were performed at the clinic between Day 7 and 14. At this visit, the following procedures and assessments were performed by clinic staff (not specified by the order below): • Cough severity VAS assessment. • Urge-to-cough VAS assessment. • Throat irritancy VAS assessment. • GRCS assessment. • Vital signs. • Weight. • Physical examination. • 12-lead ECG. • Laboratory tests: • Hematology. • Chemistry. • Urinalysis. • Urine pregnancy test for females of childbearing potential. • Record all adverse events. • Record all concomitant medication use.

Compound: CC(C)OC(=O)CNC(=O)[C@@H]1C[C@H](C)CC[C@H]1C(C)C [AX-8, [((1R,2S,5R)-2-isopropyl-5-methyl-cyclohexanecarbonyl)-amino]-acetic acid isopropyl ester]
- inhibition of the capsaicin-induced response in the presence of TRPM8 antagonist PF-05105679 ([1]; AX-8 1 μM, PF-05105679 10 μM pre-incubated 10 min, n=4): suppressed by pre-application of the TRPM8 antagonist PF-05105679; also recorded: blocked by the selective TRPM8 inhibitor PF-05105679
- inhibition of the capsaicin-induced response (maximum) ([1]; capsaicin 1 μM, AX-8 10 nM-1 mM, 10 min incubation, n=3): up to 80%
- inhibition of the capsaicin-induced response versus concentration ([1]; capsaicin 1 μM, n=3): blocked in a dose-dependent manner
- capsaicin-induced coughs after treatment ([2]; 0.375 mg/animal sprayed in oropharyngeal region 10 min before 0.1 mM capsaicin mist, Baseline (T) 25.0±2.0, n=10, p<0.01): 9.0±2.0 coughs/10 min
- effect on capsaicin-induced cough ([2]; 5 mg/mL solution, 75 μL per animal): inhibited significantly capsaicin-induced cough; also recorded: inhibits cough induced by an irritant
- Urge-to-Cough VAS, Median, Follow-Up (Visit 4) ([3]; >24-hour period after treatment, n=11, Screening 51.5): 46.0 mm
- Throat Irritation VAS, Median, Follow-Up (Visit 4) ([3]; >24-hour period after treatment, n=11, Screening 55.0): 9.0 mm
- Cough Severity VAS, Median, Follow-Up (Visit 4) ([3]; >24-hour period after treatment, n=11, Screening 61.5): 47.0 mm
- Cough Severity VAS, Median, End of Study (Visit 5) ([3]; Day 7 to 14, n=11): 64.0 mm
- Throat Irritation VAS, Median, End of Study (Visit 5) ([3]; Day 7 to 14, n=11): 47.0 mm
- Urge-to-Cough VAS, Median, End of Study (Visit 5) ([3]; Day 7 to 14, n=11): 57.0 mm
- time of apparent maximum improvement in urge-to-cough ([3]; FIG. 8): about 3 hours
- throat cooling VAS time course ([3]; FIG. 10): increase only at 30 minutes
- cough severity VAS time course ([3]; hourly for 6 hours after treatment, FIG. 7): reduction from the first hour that persisted for the 6 hours of monitoring
- urge-to-cough VAS time course ([3]; hourly for 6 hours after treatment, FIG. 8): improvement from the first hour that persisted for the 6 hours of monitoring
- throat irritation VAS time course ([3]; hourly for 6 hours after treatment, FIG. 9, baseline lower on treatment day): improvement from the first hour that persisted for the 6 hours of monitoring
